The values that follow come from ChEMBL document CHEMBL3217662 (Medchemcomm, 2011).

Data set [1] has as its system Human immunodeficiency virus 1. Put plainly: Fold resistance, ratio of EC50 for HIV1 3B harboring protease I84V/L90M mutant infected in human MT2 cells to EC50 for wild type HIV1 3B infected in human MT2 cells. The data set is classed as functional.
Data set [2] has as its system Human immunodeficiency virus 1. The experiment in a line: Antiviral activity against wild type HIV1 3B infected in human MT2 cells assessed as virus-induced cytopathic effect after 5 days by XTT assay relative to in the presence of 50% pooled human serum. The class given is functional. In general terms: Cytopathic effects are the visible damage that an infection or toxin causes in cultured cells.

The subject of data set [3] is Human immunodeficiency virus 1. The experiment in a line: Fold resistance, ratio of EC50 for HIV1 3B harboring protease M46I/I50V mutant infected in human MT2 cells to EC50 for wild type HIV1 3B infected in human MT2 cells. The class given is functional.
Data set [4] deals with Protease (Human immunodeficiency virus 1, UniProt Q9YQ12). The experiment in a line: Inhibition of HIV1 protease using fluorogenic hexapeptide substrate (2-aminobenzoyl)Thr-Ile-Nle-(p-nitro)Phe-Gln-Arg by fluorimeter.
In data set [5] the test system is Human immunodeficiency virus 1. Put plainly: Antiviral activity against wild type HIV1 3B infected in human MT2 cells assessed as virus-induced cytopathic effect after 5 days by XTT assay. The data set is classed as functional, organism-based. The note with it: Human immunodeficiency virus 1, 3B, MT2, 120 h.
Data set [6] can be described thus: Cytotoxicity against human MT2 cells assessed as reduction in cell viability after 5 days by XTT assay. The data set is classed as cell-based. For orientation: Tetrazolium assays rely on reduction of a dye to a coloured formazan, in cell work by metabolically active cells.
Data set [7] in a line: Cytotoxicity against human HepG2 cells assessed as reduction in cell viability after 5 days by XTT assay. The class given is cell-based.
In data set [8] the test system is Human immunodeficiency virus 1. The experiment in a line: Fold resistance, ratio of EC50 for HIV1 3B harboring protease G48V/I54V/V82S mutant infected in human MT2 cells to EC50 for wild type HIV1 3B infected in human MT2 cells. The class given is functional.
The test system of data set [9] is Human immunodeficiency virus 1. The experiment in a line: Fold resistance, ratio of EC50 for HIV1 3B harboring protease M46I/V82T/L90M mutant infected in human MT2 cells to EC50 for wild type HIV1 3B infected in human MT2 cells. The data set is classed as functional.
For data set [10], the system named is Human immunodeficiency virus 1. The experiment in a line: Fold resistance, ratio of EC50 for HIV1 3B harboring protease D30N/54V/L90M mutant infected in human MT2 cells to EC50 for wild type HIV1 3B infected in human MT2 cells. The data set is classed as functional.
Data set [11] concerns Human immunodeficiency virus 1. The experiment in a line: Fold resistance, ratio of EC50 for HIV1 3B harboring protease G48V/V82A/I84V/L90M mutant infected in human MT2 cells to EC50 for wild type HIV1 3B infected in human MT2 cells. The data set is classed as functional.
Data set [12] in a line: Intrinsic clearance in human liver microsomes. The class given is ADME. Particulars: read-out: CLH. Background: Liver microsomes are a subcellular fraction often used to study metabolism.
Data set [13] can be described thus: (§1) Intrinsic clearance in human liver microsomes in presence of 1 uM RTV. The data set is classed as ADME. The note with it: liver microsomes, with RTV 1 uM, read-out: CLH.
The nature of data set [14]: (§2) Intrinsic clearance in human liver microsomes in presence of 1 uM COBI. Particulars: liver microsomes, with COBI 1 uM, read-out: CLH. The data set is classed as ADME.
Data set [15] relates to Human immunodeficiency virus 1. Put plainly: Antiviral activity against wild type HIV1 3B infected in human MT2 cells assessed as fold resistance after 11 months incubation. The data set is classed as functional.
Data set [16] can be described thus: Clearance in Beagle dog at 2 mg/kg, iv over 30 mins. The arrangement: dose 2 mg/kg, route intravenous. The class given is ADME, organism-based, Canis lupus familiaris. Particulars: in vivo.
Data set [17] is described as follows: Oral bioavailability in Beagle dog at 10 mg/kg. The data set is classed as ADME, organism-based, Canis lupus familiaris. Particulars: in vivo.
Data set [18] can be described thus: Oral bioavailability in Beagle dog at 10 mg/kg in presence of 10 mg/kg COBI. The class given is ADME, organism-based, Canis lupus familiaris. The note with it: in vivo.
Data set [19] concerns Liver microsome. The data set is described as §1. The class given is ADME. Particulars: microsomes.
In data set [20] the test system is Liver microsome. The description is as §2. The note with it: microsomes. The data set is classed as ADME.

Chain of Protease (Q9YQ12 whole entry): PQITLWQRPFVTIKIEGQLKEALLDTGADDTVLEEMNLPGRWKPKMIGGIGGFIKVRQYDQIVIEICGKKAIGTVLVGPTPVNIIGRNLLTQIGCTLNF

In the case of `COc1ccc(S(=O)(=O)N(CC(C)C)C[C@@H](O)[C@H](Cc2ccc(OCP(=O)(OC(C)C)OC(C)C)cc2)NC(=O)O[C@H]2CO[C@H]3OCC[C@H]32)cc1`, the entries for the “Ratio EC50” value in data set [1], in data set [2] and in [3] were 1.3, 3.6 and 6, respectively. Further, in [4], the affinity corresponds to a Ki of 5.7 pM. Also, the half-maximal effective concentration (EC50) (in general, the midpoint of the concentration-response curve) in data set [5] was 1.9 nM.
Take `COc1ccc(S(=O)(=O)N(CC(C)C)C[C@@H](O)[C@H](Cc2ccc(O)cc2)NC(=O)O[C@H]2CO[C@H]3OCC[C@H]32)cc1`: the “Ratio EC50” value in data set [1] was found to be 0.8; in data set [3] it was 5.1. Further, the Ki (in general, the dissociation constant of the complex between target and ligand, obtained from inhibition or displacement) in data set [4] is 5.3 pM. In addition, the EC50 in data set [5] was determined as 6.9 nM.
Turning to `CC(C)(C)NC(=O)[C@@H]1CN(Cc2cccnc2)CCN1C[C@@H](O)C[C@@H](Cc1ccccc1)C(=O)N[C@H]1c2ccccc2C[C@H]1O`, the CC50 (commonly the concentration that lowers cell viability or growth by half) at 120 h in data set [6] is over 100 µM; in [7], 74.7 µM. Further, the EC50 in [5] amounted to 12.4 nM.
On to `Cc1c(O)cccc1C(=O)N[C@@H](CSc1ccccc1)[C@H](O)CN1C[C@H]2CCCC[C@H]2C[C@H]1C(=O)NC(C)(C)C`, for which the “Ratio EC50” value in data set [1] was over 92; in data set [2] it was 19.2; in [3], 16.5; in [8] it was 25.4; in [9], 26; in data set [10], over 68. Also, the “Ratio EC50” value in [11] is 30.6. For the same compound, the CC50 at 120 h was 19.1 µM in [6] and 7.4 µM in data set [7]. Besides, the Ki in data set [4] amounted to 732 pM. Besides, the EC50 in [5] was 4.9 nM.
Consider `CCOP(=O)(CCc1ccc(C[C@H](NC(=O)O[C@H]2CO[C@H]3OCC[C@H]32)[C@H](O)CN(CC(C)C)S(=O)(=O)c2ccc(OC)cc2)cc1)OCC`, for which the “Ratio EC50” value in data set [1] was 0.4; in [2] it was 2.6; in data set [3] it was 3.1. Further, in [4], the Ki came to 9.1 pM. For the same compound, in data set [5], the EC50 is 2.1 nM.
For the compound `COc1ccc(S(=O)(=O)N(CC(C)C)C[C@@H](O)[C@H](Cc2ccc(OCP(=O)(OC)OC)cc2)NC(=O)O[C@H]2CO[C@H]3OCC[C@H]32)cc1`, in data set [1], the “Ratio EC50” value worked out at 0.3. Further, in data set [4], the affinity, expressed as Ki, was 18.1 pM. Also, the EC50 in [5] turned out to be 18.8 nM.
As to `CC(C)CN(C[C@@H](O)[C@H](Cc1ccccc1)NC(=O)O[C@H]1CO[C@H]2OCC[C@H]21)S(=O)(=O)c1ccc(N)cc1`, the CC50 at 120 h in data set [6] was over 100 µM; in data set [7], 95.5 µM. Besides, the microsomal CLint in data set [12] was found to be 30.9 µL/min/mg; in [13] it was 1.6 µL/min/mg; in [14], 0.9 µL/min/mg. In addition, in [5], the EC50 was found to be 2.3 nM.
Consider `COc1ccc(S(=O)(=O)N(CC(C)C)C[C@@H](O)[C@H](Cc2ccccc2)NC(=O)O[C@H]2CO[C@H]3OCC[C@H]32)cc1`, for which the EC50 in data set [5] was 0.35 nM.
`CC(C)(C)NC(=O)[C@@H]1C[C@@H]2CCCC[C@@H]2CN1C[C@@H](O)[C@H](Cc1ccccc1)NC(=O)[C@H](CC(N)=O)NC(=O)c1ccc2ccccc2n1`: the figures for the cytotoxic concentration (CC50) at 120 h in data set [6] and in data set [7] were 32.3 µM and 12.4 µM, respectively. For the same compound, the EC50 in [5] was determined as 13.6 nM.
Take `CC(C)CN(C[C@@H](O)[C@H](Cc1ccccc1)NC(=O)O[C@H]1CCOC1)S(=O)(=O)c1ccc(N)cc1`: the “Ratio EC50” value is recorded as 16.3 in [1]; 159 in data set [3]; 0.9 in [8]; 5.9 in [9]; 0.8 in data set [10]; 20 in [11]. Besides, the CC50 at 120 h was over 100 µM in data set [6] and 98.4 µM in [7]. The affinity in [4], expressed as Ki, was 345 pM. Moreover, in [5], the EC50 is 24 nM.
On to `CCOP(=O)(COc1ccc(C[C@H](NC(=O)O[C@H]2CO[C@H]3OCC[C@H]32)[C@H](O)CN(CC(C)C)S(=O)(=O)c2ccc(OC)cc2)cc1)OCC`, for which the “Ratio EC50” value in data set [1] is on record as 0.7; in [2], 2.7; in data set [3], 2.4; in [8] it was 0.1; in data set [9] it was 0.9; in data set [10], 0.2. The “Ratio EC50” value in [11] is 0.6. Moreover, the “fold change (FC)” value in data set [15] is recorded as 15. The values for the CC50 at 120 h in data set [6] and in [7] were over 100 µM and 61.3 µM, respectively. Moreover, the clearance (as a rule, the volume of plasma or blood freed of the substance per unit of time) in data set [16] is 35.5 mL/min/kg. Also, the bioavailability – broadly, dose-corrected exposure relative to a reference, in per cent – was found to be 6.9% in data set [17] and 100% in [18]. Moreover, the microsomal CLint turned out to be 9.2 µL/min/mg in data set [12], 2.6 µL/min/mg in data set [13] and 1 µL/min/mg in [14]. In data set [4], this compound returned a Ki of 8.1 pM. The EC50 in data set [5] amounted to 3.5 nM.
For `COc1ccc(C[C@H](NC(=O)O[C@H]2CO[C@H]3OCC[C@H]32)[C@H](O)CN(CC(C)C)S(=O)(=O)c2ccc(OC)cc2)cc1`, the “Ratio EC50” value in data set [1] turned out to be 17; in data set [3], 157. In addition, in data set [5], the EC50 worked out at 0.06 nM.
Consider `COC(=O)N[C@H](C(=O)N[C@@H](Cc1ccccc1)[C@@H](O)CN(Cc1ccc(-c2ccccn2)cc1)NC(=O)[C@@H](NC(=O)OC)C(C)(C)C)C(C)(C)C` [ATAZANAVIR], for which the “Ratio EC50” value is recorded as over 100 in [1]; 2.4 in [2]; 1.9 in data set [3]; 127 in data set [8]; 43.9 in data set [9]; 141 in data set [10]. Besides, in data set [11], the “Ratio EC50” value stood at 102. The CC50 at 120 h was 79.8 µM in data set [6] and 26.5 µM in [7]. Moreover, in data set [12], the microsomal CLint is 23 µL/min/mg. Also, the CLH came out at 1.4 µL/min/mg in [19] and 0.9 µL/min/mg in [20]. The same compound yielded an inhibition constant (Ki) in data set [4] of 47.9 pM. The EC50 in [5] was found to be 2.2 nM.
For the compound `Cc1cccc(C)c1OCC(=O)N[C@@H](Cc1ccccc1)[C@@H](O)C[C@H](Cc1ccccc1)NC(=O)[C@H](C(C)C)N1CCCNC1=O` [LOPINAVIR], the CC50 at 120 h was found to be 67.9 µM in data set [6] and 27.8 µM in [7]. Besides, the values for the microsomal CLint in data set [12], in data set [13] and in data set [14] were 544 µL/min/mg, 1.6 µL/min/mg and 2.7 µL/min/mg, respectively. Besides, the EC50 in data set [5] amounted to 5.6 nM.
In the case of `CC(C)c1nc(CN(C)C(=O)N[C@H](C(=O)N[C@@H](Cc2ccccc2)C[C@H](O)[C@H](Cc2ccccc2)NC(=O)OCc2cncs2)C(C)C)cs1` [RITONAVIR], in [5], the EC50 came to 32.2 nM.
Consider `CCOP(=O)(Cc1ccc(C[C@H](NC(=O)O[C@H]2CO[C@H]3OCC[C@H]32)[C@H](O)CN(CC(C)C)S(=O)(=O)c2ccc(OC)cc2)cc1)OCC`, for which the “Ratio EC50” value in data set [1] turned out to be 5.8; in data set [2] it was 2.4; in data set [3], 36. In data set [4], this compound showed a Ki of 8.4 pM. Besides, the EC50 in data set [5] was 5.9 nM.
`CCOP(=O)(OCC)c1ccc(C[C@H](NC(=O)O[C@H]2CO[C@H]3OCC[C@H]32)[C@H](O)CN(CC(C)C)S(=O)(=O)c2ccc(OC)cc2)cc1`: the “Ratio EC50” value in data set [1] is listed as 0.5; in data set [3] it was 4.5. This compound returned a Ki in data set [4] of 1.2 pM. The EC50 in [5] was 7.5 nM.
As for `COC(=O)c1ccc(C[C@H](NC(=O)O[C@H]2CO[C@H]3OCC[C@H]32)[C@H](O)CN(CC(C)C)S(=O)(=O)c2ccc(OC)cc2)cc1`, the entries for the “Ratio EC50” value in data set [1] and in data set [3] were 1.2 and 11, respectively. The affinity in [4] corresponds to a Ki of 5.4 pM. Moreover, the EC50 in data set [5] is 0.3 nM.
